CC[C@H]1OC(=O)[C@H](C)[C@@H](O[C@H]2C[C@@](C)(OC)[C@@H](O)[C@H](C)O2)[C@H](C)[C@@H](O[C@@H]2O[C@H](C)C[C@H](N(C)C)[C@H]2O)[C@](C)(O)C[C@@H](C)C(=O)[C@H](C)[C@@H](O)[C@]1(C)O.O.O
solubility (mole fraction)
Settings | 293.2 K | 298 K | 303.15 K | 308 K | 313.1 K | 318 K | 323 K
in acetone | 0.00914 | 0.0131 | 0.0217 | 0.0293 | 0.0433 | 0.0542 | 0.0804
in chloroform | 0.00391 | 0.0054 | 0.00875 | 0.0134 | 0.0216 | 0.0313 | 0.0473
in ethanol | 0.0148 | 0.0192 | 0.0254 | 0.0338 | 0.046 | 0.062 | 0.081
in isopropanol | 0.003 | 0.00401 | 0.00556 | 0.00754 | 0.00995 | 0.0143 | 0.0194
in methanol | 0.0116 | 0.0143 | 0.0179 | 0.0215 | 0.0253 | 0.0305 | 0.0373
in water | 5.4e-05 | 4.7e-05 | 4.2e-05 | 4e-05 | 3.8e-05 | 3.5e-05 | 3.4e-05

Source: BigSolDB 2.1
